Assay results published in patent publication US7307085B2, “Mitotic kinesin inhibitors” (Merck & Co., Inc., priority 2003, dated 2007).

Biological target: T1, human KSP motor domain (KSP(367H)) (Homo sapiens, UniProt P52732)
T1 construct: were used to amplify the motor domain and the neck linker region; made in house; host or cells: E. coli BL21 (DE3)
T1 sequence (P52732 18-359 limits assumed): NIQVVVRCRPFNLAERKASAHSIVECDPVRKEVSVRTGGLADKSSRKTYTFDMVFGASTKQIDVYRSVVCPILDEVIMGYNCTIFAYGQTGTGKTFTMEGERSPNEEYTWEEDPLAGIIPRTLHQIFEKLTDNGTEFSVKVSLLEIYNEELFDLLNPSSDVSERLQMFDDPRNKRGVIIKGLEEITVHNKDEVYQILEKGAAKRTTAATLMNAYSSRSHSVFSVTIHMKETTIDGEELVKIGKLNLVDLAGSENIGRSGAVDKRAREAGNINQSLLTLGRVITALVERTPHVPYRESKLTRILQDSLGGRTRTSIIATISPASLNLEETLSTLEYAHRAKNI
Test: Kinesin ATPase In Vitro Assay
Format: biochemical
Conditions: human poly-histidine tagged KSP motor domain with microtubules, 1 mM ATP, 23° C.
From the text: I. Kinesin ATPase In Vitro Assay
Cloning and Expression of Human Poly-Histidine Tagged KSP Motor Domain_(KSP(367H))
Plasmids for the expression of the human KSP motor domain construct were cloned by PCR using a pBluescript full length human KSP construct (Blangy et al., Cell, vol. 83, pp 1159-1169, 1995) as a template. The N-terminal primer 5′-[…] (SEQ.ID.NO.: 1) and the C-terminal primer 5′-[…] […]lCAGGCTTATTCAATAT (SEQ.D.NO.: 2) were used to amplify the motor domain and the neck linker region. The PCR products were digested with AseI and XhoI, ligated into the NdeI/XhoI digestion product of pRSETa (Invitrogen) and transformed into E. coli BL21 (DE3).
Cells were grown at 37° C. to an OD600 of 0.5. […]
The kinesin motor domain is incubated with microtubules, 1 mM ATP (1:1 MgCl2: Na-ATP), and compound at 23° C. in buffer containing 80 mM K-HEPES (pH 7.0), 1 mM EGTA, 1 mM DTT, 1 mM MgCl2, and 50 mM KCl. […] Free phosphate from the ATP hydrolysis reaction is measured via a quinaldine redlammonium molybdate assay by adding a […] volume of quench C (e.g., to a mixture of 40 μl reaction volume+40 μl stop buffer is then added 120 μl quench C). […] Quench C is a 2:1 ratio of quench A:quench B The reaction is incubated for 5-10 minutes at 23° C., and the absorbance of the phospho-molybdate complex is measured at 540 nm.

O=C1CC[C@@H]2CC(c3cc(F)ccc3F)=C[C@@H](c3ccccc3)N12 [1-5, (−)-(5S,8aR)-7-(2,5-difluorophenyl)-5-phenyl-1,5,8,8a-tetrahydroindolizin-3(2H)-one]
IC50: ≤ 50 µM

O=C1CC[C@@H]2C=C(c3cc(F)ccc3F)C[C@@H](c3ccccc3)N12 [1-6, (+)-(5S,8aR)-7-(2,5-difluorophenyl)-5-phenyl-1,5,6,8a-tetrahydroindolizin-3(2H)-one]
IC50: ≤ 50 µM
